In ChEMBL document CHEMBL4616706 (ACS Med Chem Lett, 2020):
In brackets after ≈: the same amount, converted by molar mass.

System: not listed separately
Experiment: Clearance in human hepatocytes assessed per million cells
Format: ADME, cell-based, Hepatocyte
Details: read-out: CLH

| Compound | hepatocyte CLint [µL/min/1e6 cells] |
| --- | --- |
| Cc1cc(N2C[C@H]3CC[C@@H](C2)[C@@H]3Nc2nc3n(n2)CCCCC3c2ccc(F)c(F)c2F)ncn1 (mixture of isomers) | 3.1 |
| Cc1cc(N2C[C@H]3CC[C@@H](C2)[C@@H]3Nc2nc3n(n2)CCCCC3c2cccc(C(F)(F)F)c2)ncn1 (mixture of isomers) | 14 |
| Cc1cc(N2C[C@H]3CC[C@@H](C2)[C@@H]3Nc2nc3n(n2)CCCCC3c2ccc(F)c(F)c2F)cnn1 (mixture of isomers) | 2.1 |
| Cc1cc(N2C[C@H]3CC[C@@H](C2)[C@@H]3Nc2nc3n(n2)CCCCC3c2ccc(F)c(F)c2)ncn1 (mixture of isomers) | 6.5 |
| Fc1ccc(C2CCCCn3nc(N[C@@H]4[C@@H]5CC[C@H]4CN(c4cnnc(Cl)c4)C5)nc32)c(F)c1F (mixture of isomers) | 3.3 |

System: not listed separately
Experiment: Solubility of compound by LYSA assay
Format: physicochemical
Details: not given

| Compound | solubility [µg/mL] |
| --- | --- |
| Cc1cc(N2C[C@H]3CC[C@@H](C2)[C@@H]3Nc2nc3n(n2)CCCCC3c2ccc(F)c(F)c2F)ncn1 (mixture of isomers) | 0.7 (≈ 1.45 µM) |
| Cc1cc(N2C[C@H]3CC[C@@H](C2)[C@@H]3Nc2nc3n(n2)CCCCC3c2cccc(C(F)(F)F)c2)ncn1 (mixture of isomers) | 34 (≈ 68.3 µM) |
| Cc1cc(N2C[C@H]3CC[C@@H](C2)[C@@H]3Nc2nc3n(n2)CCCCC3c2ccc(F)c(F)c2F)cnn1 (mixture of isomers) | 188 (≈ 389 µM) |
| Fc1ccc(C2CCCCn3nc(N[C@@H]4[C@@H]5CC[C@H]4CN(c4cnnc(Cl)c4)C5)nc32)c(F)c1F (mixture of isomers) | 14 (≈ 27.8 µM) |

Molecular target: P-gp (ABCB1) (Homo sapiens, UniProt P08183)
Sequence (P08183 whole entry): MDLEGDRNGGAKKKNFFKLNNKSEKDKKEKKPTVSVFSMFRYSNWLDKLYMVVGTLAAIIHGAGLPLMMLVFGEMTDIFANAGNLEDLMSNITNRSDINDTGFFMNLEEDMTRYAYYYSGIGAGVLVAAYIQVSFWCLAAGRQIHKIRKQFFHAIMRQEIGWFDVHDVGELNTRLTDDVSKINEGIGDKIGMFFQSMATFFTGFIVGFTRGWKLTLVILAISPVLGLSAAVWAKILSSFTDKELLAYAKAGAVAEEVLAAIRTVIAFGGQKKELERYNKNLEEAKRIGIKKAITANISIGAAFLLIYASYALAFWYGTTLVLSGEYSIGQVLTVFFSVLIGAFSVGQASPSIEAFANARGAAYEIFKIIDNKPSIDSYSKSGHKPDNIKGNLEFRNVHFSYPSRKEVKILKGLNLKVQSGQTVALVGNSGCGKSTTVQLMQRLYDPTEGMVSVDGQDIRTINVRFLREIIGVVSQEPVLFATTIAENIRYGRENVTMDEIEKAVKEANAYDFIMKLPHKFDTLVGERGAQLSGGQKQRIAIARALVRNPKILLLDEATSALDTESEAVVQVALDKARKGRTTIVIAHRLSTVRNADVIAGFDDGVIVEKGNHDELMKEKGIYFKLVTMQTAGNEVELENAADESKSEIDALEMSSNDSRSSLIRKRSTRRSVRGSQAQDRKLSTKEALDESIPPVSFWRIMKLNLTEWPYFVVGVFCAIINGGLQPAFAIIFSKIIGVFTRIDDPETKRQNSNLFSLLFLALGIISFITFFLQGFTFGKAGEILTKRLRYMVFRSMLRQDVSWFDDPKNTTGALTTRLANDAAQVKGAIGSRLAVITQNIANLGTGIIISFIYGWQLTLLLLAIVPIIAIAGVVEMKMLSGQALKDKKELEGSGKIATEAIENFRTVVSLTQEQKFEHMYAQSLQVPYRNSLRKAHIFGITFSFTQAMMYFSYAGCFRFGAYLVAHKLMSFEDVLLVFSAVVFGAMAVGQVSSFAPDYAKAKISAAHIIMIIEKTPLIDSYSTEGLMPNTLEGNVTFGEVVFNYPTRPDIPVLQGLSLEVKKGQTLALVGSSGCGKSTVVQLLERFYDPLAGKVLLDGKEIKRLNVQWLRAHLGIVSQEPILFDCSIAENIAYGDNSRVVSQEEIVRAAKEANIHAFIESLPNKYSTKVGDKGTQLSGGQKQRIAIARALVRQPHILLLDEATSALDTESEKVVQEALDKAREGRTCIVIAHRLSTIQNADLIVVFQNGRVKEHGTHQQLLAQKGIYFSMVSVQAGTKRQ
Experiment: Substrate activity at human P-gp assessed as efflux ratio
Format: ADME
Details: not told

| Compound | efflux ratio |
| --- | --- |
| Cc1cc(N2C[C@H]3CC[C@@H](C2)[C@@H]3Nc2nc3n(n2)CCCCC3c2ccc(F)c(F)c2F)ncn1 (mixture of isomers) | 2.1 |
| Cc1cc(N2C[C@H]3CC[C@@H](C2)[C@@H]3Nc2nc3n(n2)CCCCC3c2cccc(C(F)(F)F)c2)ncn1 (mixture of isomers) | 2.2 |
| Cc1cc(N2C[C@H]3CC[C@@H](C2)[C@@H]3Nc2nc3n(n2)CCCCC3c2ccc(F)c(F)c2F)cnn1 (mixture of isomers) | 20 |
| Fc1ccc(C2CCCCn3nc(N[C@@H]4[C@@H]5CC[C@H]4CN(c4cnnc(Cl)c4)C5)nc32)c(F)c1F (mixture of isomers) | 4.3 |

Molecular target: hERG (KCNH2) (Homo sapiens, UniProt Q12809)
Sequence (Q12809 whole entry): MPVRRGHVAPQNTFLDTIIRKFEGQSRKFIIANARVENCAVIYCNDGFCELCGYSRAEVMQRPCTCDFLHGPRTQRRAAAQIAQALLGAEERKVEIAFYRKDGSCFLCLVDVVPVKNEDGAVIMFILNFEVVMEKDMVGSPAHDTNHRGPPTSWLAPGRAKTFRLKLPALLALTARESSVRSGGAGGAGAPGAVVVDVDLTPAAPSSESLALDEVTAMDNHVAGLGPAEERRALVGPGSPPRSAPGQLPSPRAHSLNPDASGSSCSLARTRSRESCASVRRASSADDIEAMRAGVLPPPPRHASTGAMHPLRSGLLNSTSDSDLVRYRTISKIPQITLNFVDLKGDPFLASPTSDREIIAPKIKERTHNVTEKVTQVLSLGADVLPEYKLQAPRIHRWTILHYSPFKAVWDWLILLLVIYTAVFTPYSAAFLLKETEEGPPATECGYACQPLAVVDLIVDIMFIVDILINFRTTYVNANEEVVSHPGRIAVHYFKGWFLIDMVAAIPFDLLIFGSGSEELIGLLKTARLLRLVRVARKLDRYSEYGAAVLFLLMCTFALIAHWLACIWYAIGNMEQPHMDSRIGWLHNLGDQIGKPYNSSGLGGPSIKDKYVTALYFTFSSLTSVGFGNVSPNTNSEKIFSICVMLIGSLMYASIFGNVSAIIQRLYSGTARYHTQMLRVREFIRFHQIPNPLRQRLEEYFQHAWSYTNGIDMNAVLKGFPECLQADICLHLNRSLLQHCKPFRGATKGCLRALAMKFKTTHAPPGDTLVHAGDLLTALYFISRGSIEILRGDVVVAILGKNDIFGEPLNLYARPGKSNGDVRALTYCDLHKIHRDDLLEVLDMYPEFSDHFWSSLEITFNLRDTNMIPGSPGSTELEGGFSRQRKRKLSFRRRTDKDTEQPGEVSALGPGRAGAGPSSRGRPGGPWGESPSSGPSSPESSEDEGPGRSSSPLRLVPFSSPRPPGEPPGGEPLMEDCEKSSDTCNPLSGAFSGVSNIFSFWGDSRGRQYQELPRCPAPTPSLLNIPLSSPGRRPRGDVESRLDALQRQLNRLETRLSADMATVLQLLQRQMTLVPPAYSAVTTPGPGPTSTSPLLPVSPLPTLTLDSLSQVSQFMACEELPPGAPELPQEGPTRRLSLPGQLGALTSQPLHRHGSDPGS
Experiment: (§1) Inhibition of human ERG
Details: human

| Compound | IC20 [nM] |
| --- | --- |
| COc1cc(N2C[C@H]3CC[C@@H](C2)[C@@H]3Nc2nc3n(n2)CCCCC3c2ccc(F)c(F)c2F)ncn1 (mixture of isomers) | 200 |

Molecular target: Voltage-gated inwardly rectifying potassium channel KCNH2 (Homo sapiens, UniProt Q12809)
Sequence (Q12809 whole entry): as above
Experiment: as §1
Details: not given

| Compound | IC50 [nM] |
| --- | --- |
| COc1cc(N2C[C@H]3CC[C@@H](C2)[C@@H]3Nc2nc3n(n2)CCCCC3c2ccc(F)c(F)c2F)ncn1 (mixture of isomers) | 550 |

Molecular target: Gamma-secretase
Experiment: Modulation of gamma secretase in human H4 cells overexpressing human APP695 harboring K595N/M596L Swedish double mutant assessed as reduction in total amyloid beta (1 to 42 residues) production measured after 24 hrs by AlphaLISA assay
Format: cell-based
Details: not given

| Compound | IC50 [nM] |
| --- | --- |
| Cc1cc(N2C[C@H]3CC[C@@H](C2)[C@@H]3Nc2nc3n(n2)CCCN3c2ccc(C(F)(F)F)cc2)ncn1 | 11 |
| Fc1ccc(N2CCCn3nc(N[C@@H]4[C@@H]5CC[C@H]4CN(c4ccnc(C(F)(F)F)c4)C5)nc32)cc1F | 15 |
| Cc1cc(N2C[C@H]3CC[C@@H](C2)[C@@H]3Nc2nc3n(n2)CCCCC3c2ccc(F)c(F)c2F)ncn1 (mixture of isomers) | 15 |
| Cc1cc(N2C[C@H]3CC[C@@H](C2)[C@@H]3Nc2nc3n(n2)CCCCC3c2cccc(C(F)(F)F)c2)ncn1 (mixture of isomers) | 19 |
| Cc1cc(N2C[C@H]3CC[C@@H](C2)[C@@H]3Nc2nc3n(n2)CCCCC3c2ccc(F)c(F)c2F)cnn1 (mixture of isomers) | 30 |
| Cc1cc(N2C[C@H]3CC[C@@H](C2)[C@@H]3Nc2nc3n(n2)CCCCC3c2ccc(F)c(F)c2)ncn1 (mixture of isomers) | 23 |
| Fc1ccc(C2CCCCn3nc(N[C@@H]4[C@@H]5CC[C@H]4CN(c4cnnc(Cl)c4)C5)nc32)c(F)c1F (mixture of isomers) | 14 |
| COc1cc(N2C[C@H]3CC[C@@H](C2)[C@@H]3Nc2nc3n(n2)CCCCC3c2ccc(F)c(F)c2F)ncn1 (mixture of isomers) | 29 |
